Assay [1] concerns the target human ICMT (Homo sapiens (Human), UniProt O60725). In words: ICMT biochemical assay (Methyltransferase-Glo).
Assay [2] deals with MIAPaCa-2 cells. The assay is described as follows: Cell proliferation assay (CellTiter-Glo). Type of assay: cell-based. Particulars: Homo sapiens, MIA PaCa-2, 72 h, 3 days. The protocol:
Cell proliferation assay was performed using CellTiter-Glo Luminescent Cell Viability Assay (Promega) following manufacturer's instructions. The MIAPaCa-2 cells (ATCC) were treated with compounds that were serial diluted in the media (DMEM). Plates were incubated for 3 days at 37° C. in 5% CO2. After 3 days, an equal volume of Cell Titer Glo reagent was added. Plates were rocked on a rotator for 2 hours. 100 μL of each well was transferred to a 96-well opaque plate, and luminescence emitted was measured with the Tecan Safire II.
For orientation: ATP-based viability assays read luminescence as a measure of living cells.

The test system of assay [3] is Prelamin A in MIAPaCa-2 cells. The assay is described as follows: Prelamin A accumulation assay (Western blot). Type of assay: cell-based. The conditions noted are these: various concentrations, 48 hours. Here is the method:
The MIAPaCa-2 cells were seeded in 6-well plates. After seeding for 24 hours, the cells were treated with either DMSO or varying concentration of the compound and incubated for 48 hours. The cells were trypsinized and the lysate was extracted with RIPA buffer (Santa Cruz). The total protein concentration of lysate is quantified using the standard Bradford assay (Biorad protein assay, microplate standard assay).
Western blot analysis was performed using antibody against Prelamin A in MIAPaCa cells treated with compound at various concentration for 48 hours. 15.0 μg of cell lysate was run on a SDS-PAGE and then transferred to nitrocellulose membrane. The membrane was then incubated in blocking buffer [PBS (phosphate buffered saline) with 0.1% Tween 20 and 5% dry milk] at room temperature for 1 hour, followed by incubation with Prelamin A antibody (rat monoclonal antibody) at 1:2500 dilution in PBS, 0.1% Tween 20 and 5% dry milk overnight at 4° C., followed by three washes (15 minutes each wash) in PBS, 0.1% Tween 20 on the next day.
The nitrocellulose membrane was then incubated with secondary antibody solution at room temperature for 1 hour, washed three times before developed with enhanced Chemiluminescence (ECL) mixture (Amersham, Aylesbury, United Kingdom), incubated for 5 minutes and exposed using Fluor Chem E System instrument (Protein Simple).

Setting [4] is: ICMT membrane extract from Sf-9 cells, 30 min preincubation, 90 min reaction.

SMILES strings stand for the structures. Where “and” joins values, the source holds several entries; their conditions need not be identical. Equal values may be shown once.

human ICMT, sequence (O60725 whole entry): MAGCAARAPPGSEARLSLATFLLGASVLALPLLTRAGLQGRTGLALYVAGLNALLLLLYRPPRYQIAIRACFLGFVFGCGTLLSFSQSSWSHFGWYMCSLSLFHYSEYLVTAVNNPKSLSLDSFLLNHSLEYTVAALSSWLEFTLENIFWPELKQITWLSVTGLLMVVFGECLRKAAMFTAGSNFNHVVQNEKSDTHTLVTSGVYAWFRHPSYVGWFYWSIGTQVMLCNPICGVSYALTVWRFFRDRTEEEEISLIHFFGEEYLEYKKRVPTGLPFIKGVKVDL

Turning to `Cc1nccn1-c1cc(OCCOc2ccc(C#N)cc2F)ccn1` [Compound 53, 3-fluoro-4-(2-((2-(2-methyl-1H-imidazol-1-yl)pyridin-4-yl)oxy)ethoxy)benzonitrile], the 50% inhibitory concentration (IC50) in assay [1] (setting [4]) came out at 440 pM. In addition, in assay [2], the GI50 turned out to be 2200 nM.
Turning to `Cn1nccc1-c1cc(OCCOc2ccc(C#N)cc2)ccn1` [Compound 59, 4-(2-((2-(1-methyl-1H-pyrazol-5-yl)pyridin-4-yl)oxy)ethoxy)benzonitrile], the IC50 in assay [1] (setting [4]) came out at 20000 pM. Further, in assay [3], the “Prelamin A accumulation (Western blot)” value was “Prelamin A accumulation”. In addition, the GI50 in assay [2] worked out at 5520 nM.
Take `Cn1nccc1-c1cc(OCCOc2ccc(C#N)cc2F)ccn1` [Compound 69, 3-fluoro-4-(2-((2-(1-methyl-1H-pyrazol-5-yl)pyridin-4-yl)oxy)ethoxy)benzonitrile]: the IC50 in assay [1] (setting [4]) is 2800 pM and 1400 pM and 1500 pM. For the same compound, the “Prelamin A accumulation (Western blot)” value in assay [3] was “Prelamin A accumulation”. The same compound came in with a 50% growth inhibitory concentration (GI50) in assay [2] of 5050 nM.
With `Cc1nccn1-c1cc(OCCOc2ccc(C#N)cn2)ccn1` [Compound 70, 6-(2-((2-(2-methyl-1H-imidazol-1-yl)pyridin-4-yl)oxy)ethoxy)nicotinonitrile], half-maximal inhibition in assay [1] (setting [4]) (IC50) required 27000 pM. In addition, the “Prelamin A accumulation (Western blot)” value in assay [3] was “Prelamin A accumulation”. Besides, in assay [2], it took 5990 nM to inhibit growth by half (GI50).
As for `Cn1nccc1-c1cc(OCCOc2ccc(C#N)cn2)ccn1` [Compound 71, 6-(2-((2-(1-methyl-1H-pyrazol-5-yl)pyridin-4-yl)oxy)ethoxy)nicotinonitrile], in assay [1] (setting [4]), the IC50 is 44000 pM and 41000 pM. The “Prelamin A accumulation (Western blot)” value in assay [3] is given as “Prelamin A accumulation”. Further, in assay [2], the 50% growth inhibitory concentration (GI50) came out at 12700 nM.
With `Cc1nccn1-c1cccc(OC[C@@H](C)Oc2ccc(C#N)cc2F)c1` [Compound 78, (R)-3-fluoro-4-((1-(3-(2-methyl-1H-imidazol-1-yl)phenoxy)propan-2-yl)oxy)benzonitrile], the IC50 in assay [1] (unit printed in cell (pM)) was found to be 75 pM. In addition, growth in assay [2] was halved (GI50) at 6020 nM.
In assay [1] (setting [4]), `Cc1nccn1-c1cccc(OCCOc2ccc(F)cc2C#N)c1` [Compound 114, 5-fluoro-2-(2-(3-(2-methyl-1H-imidazol-1-yl)phenoxy)ethoxy)benzonitrile] gave an IC50 of 82000 pM.
Compound `Cc1nccn1-c1cc(OCCOc2ccc(Cl)cc2)ccn1` [Compound 115, 4-(2-(4-chlorophenoxy)ethoxy)-2-(2-methyl-1H-imidazol-1-yl)pyridine] yielded a half-maximal inhibitory concentration (IC50) in assay [1] (setting [4]) of 160000 pM.
`N#Cc1ccc(OCCOc2cccc(-c3ccnn3C3CC3)c2)c(F)c1` [Compound 116, 4-(2-(3-(1-cyclopropyl-1H-pyrazol-5-yl)phenoxy)ethoxy)-3-fluorobenzonitrile] displayed a concentration for half-maximal inhibition (IC50) in assay [1] (setting [4]) of 9500 pM.
On to `N#Cc1ccc(OCCOc2cccc(-c3ccnn3C3CC3)c2)cc1` [Compound 117, 4-(2-(3-(1-cyclopropyl-1H-pyrazol-5-yl)phenoxy)ethoxy)benzonitrile], for which inhibition in assay [1] (setting [4]) was half-maximal at 55000 pM (IC50).
Take `N#Cc1ccc(OCCOc2cccc(-c3ccnn3C3CC3)c2)c(Cl)c1` [Compound 118, 3-chloro-4-(2-(3-(1-cyclopropyl-1H-pyrazol-5-yl)phenoxy)ethoxy)benzonitrile]: the midpoint of inhibition in assay [1] (setting [4]), the IC50, lay at 2200 pM.
`Cc1nccn1-c1cc(OCCOc2ccc(F)cc2C#N)ccn1` [Compound 119, 5-fluoro-2-(2-((2-(2-methyl-1H-imidazol-1-yl)pyridin-4-yl)oxy)ethoxy)benzonitrile]: the 50% inhibitory concentration (IC50) in assay [1] (setting [4]) was 80000 pM.
Same read-out and setting: the value for `N#Cc1ccc(OCCOc2ccnc(-n3cnnn3)c2)c(F)c1` [Compound 120, 4-(2-((2-(1H-tetrazol-1-yl)pyridin-4-yl)oxy)ethoxy)-3-fluorobenzonitrile] was 12000 pM; that for `Cn1nccc1-c1cc(OCCOc2ccc(Br)cc2F)ccn1` [Compound 121, 4-(2-(4-bromo-2-fluorophenoxy)ethoxy)-2-(1-methyl-1H-pyrazol-5-yl)pyridine] was 70000 pM.

The term IC50 denotes the point on the concentration scale where inhibition reaches its midpoint. What is called GI50 is the concentration at which growth is held to half of that of the control. Low values mean more potent growth inhibition, high ones less potent growth inhibition.
